From PubChem BioAssay (NCI)
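Protocol summary: plate cells (96-well), add compound at 5 concentrations, incubate 48 h, interpolate endpoints linearly. GI50 = concentration required for 50% inhibition of growth. The concentration for full growth arrest is given as TGI.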

Key:
Assay in all cases: growth of human tumour cells (NCI), 48 h
M14 melanoma = system: M14 melanoma
EKVX NSCLC = system: EKVX NSCLC
RXF 393 renal = system: RXF 393 renal
SW-620 colon = system: SW-620 colon
U251 CNS = system: U251 CNS
HT29 colon = system: HT29 colon
HOP-92 NSCLC = system: HOP-92 NSCLC
NCI-H226 lung = system: NCI-H226 lung
T-47D breast = system: T-47D breast
NCI/ADR-RES ovarian = system: NCI/ADR-RES ovarian

Row | Structure (SMILES) | TGI (M14 melanoma) [µM] | TGI (EKVX NSCLC) [µM] | TGI (RXF 393 renal) [µM] | TGI (SW-620 colon) [µM] | TGI (U251 CNS) [µM] | TGI (HT29 colon) [µM] | TGI (HOP-92 NSCLC) [µM] | TGI (NCI-H226 lung) [µM] | TGI (T-47D breast) [µM] | TGI (NCI/ADR-RES ovarian) [µM] | GI50 (NCI-H226 lung) [µM] | GI50 (NCI/ADR-RES ovarian) [µM] | GI50 (EKVX NSCLC) [µM] | GI50 (RXF 393 renal) [µM] | GI50 (SW-620 colon) [nM] | GI50 (U251 CNS) [µM] | GI50 (HT29 colon) [nM] | GI50 (HOP-92 NSCLC) [µM] | GI50 (M14 melanoma) [nM] | GI50 (T-47D breast) [nM]
1 | CC1OC=CC(=O)C1O (stereo not drawn) | > 100 | > 100 | > 100 | > 100 | > 100 | > 100 | > 100 |  |  |  |  |  |  |  |  |  |  |  |  | 
2 | COc1ccc(N2C(=O)/C(=C/c3ccc(N(CCC#N)CCC#N)cc3)N=C2c2ccccc2)c(OC)c1 | > 100 | > 100 |  | > 100 | > 100 | > 100 | 68.9 | > 100 | 69.5 | > 100 |  |  |  |  |  |  |  |  |  | 
3 | O=c1/c(=C/c2ccc(-c3ccc(Cl)cc3Cl)o2)sc2n1[C@@H](c1ccc3c(c1)OCO3)C=C(c1cc(F)c(Cl)cc1Cl)N=2 | > 100 |  | > 100 | > 100 | > 100 | 74.7 | 95.5 | > 100 | > 100 | > 100 |  |  |  |  |  |  |  |  |  | 
4 | CC(C)CC(NC(=O)C(COc1ccc([N+](=O)[O-])cc1)Cc1ccccc1)C(=O)Nc1ccccc1 (stereo not drawn) | 60.8 | 91.4 | 41.6 | > 100 | 28.7 |  | 34.2 | 16.1 |  | 43.3 |  |  |  |  |  |  |  |  |  | 
5 | COc1ccc(NC(=S)NNC(=O)c2cc(-c3ccccc3)nc3ccccc23)cc1 | 31.9 |  | 44.6 | 41.6 | 38.5 | 39.3 | 31.9 | 42.8 | 59.7 | 35.5 |  |  |  |  |  |  |  |  |  | 
6 | C=C1CC(OC)(C(O)C(=O)N[C@H]2OCO[C@H]3C2O[C@H](C[C@H](O)COC)C(C)(C)C3OC)O[C@H](C)[C@@H]1C (stereo partly drawn) |  | > 0.00772 | > 0.00772 |  | > 0.00772 | > 0.00772 |  | > 0.00772 |  | > 0.00772 |  |  |  |  |  |  |  |  |  | 
7 | COc1cccc2c1[C@]1(O)C(O)CCCC21 (stereo partly drawn) | > 100 |  | > 100 | > 100 | > 100 | > 100 |  | > 100 |  |  |  |  |  |  |  |  |  |  |  | 
8 | CCCC(=O)OC1CC(n2cc(F)c(=O)[nH]c2=O)OC1CO (stereo not drawn) | > 5.96 | > 10 | > 10 | > 10 | > 10 | > 10 |  | > 10 | > 10 | > 10 |  |  |  |  |  |  |  |  |  | 
9 | CCOC(=O)c1cn(C)nc1N/C(C)=C\C(=O)c1ccccc1 | > 100 | > 100 |  | > 100 | > 100 | > 100 | > 100 | > 100 | > 100 | > 100 |  |  |  |  |  |  |  |  |  | 
10 | Cc1ccc2c(=O)c(C(=O)N(CCO)CCO)c[nH]c2n1 | > 100 | > 100 | > 100 | > 100 | > 100 | > 100 |  | > 100 | > 100 | > 100 |  |  |  |  |  |  |  |  |  | 
11 | CC1(C)N=C(N)N=C(N)N1c1ccc(OCCCOc2ccccc2)c(Cl)c1 |  | 14.4 | 22.8 | 13.7 | 11.2 | 10.5 | 3.83 | 15.4 |  | > 100 |  |  |  |  |  |  |  |  |  | 
12 | Cc1nn(-c2ccccn2)c2c1C(SC#N)=C(C=O)CC2 | 31.7 | 36.1 | 17.6 | 59.3 | 28.8 | 47 | 34.5 |  | 20.3 | 45.5 |  |  |  |  |  |  |  |  |  | 
13 | CCOC(=O)N1C(=S)C(C(=O)OC)(C(=O)OC)N=C1C | > 100 | > 100 | > 100 | > 100 | > 100 |  | > 100 | > 100 | > 100 | > 100 |  |  |  |  |  |  |  |  |  | 
14 | CCOC(=O)c1cc(-c2ccn(C(C)=O)c2)c(-c2cc(C)co2)[nH]1 | > 100 | > 100 | > 100 | > 100 | > 100 |  |  | > 100 | > 100 | > 100 |  |  |  |  |  |  |  |  |  | 
15 | COC(=O)[C@@H]1O[C@]12[C@@H](CO[Si](C)(C)C(C)(C)C)O[C@@H](n1cc(C)c(=O)[nH]c1=O)[C@@H]2O[Si](C)(C)C(C)(C)C | 35.9 | 53.6 | 22.7 | 27.9 | 24.7 | 18.1 |  | 45.5 | 27.3 | 33.8 |  |  |  |  |  |  |  |  |  | 
16 | NC1CCCCC1N.O=S(=O)([O-])CCCN1CCN(CCO)CC1.O=S(=O)([O-])CCCN1CCN(CCO)CC1.[Pt+4] |  | > 100 | 82.5 | 21 | > 100 | > 22.1 | 59.3 | > 100 |  | > 37 | 5.26 | 1.47 | 55.4 | 15.9 | 2290 | 14.9 | 945 | 19 |  | 
17 | CC(=O)Nc1ccc(/C=C(\NC(=O)c2ccccc2)C(=O)NNS(=O)(=O)c2ccc(C)cc2)cc1 | > 100 | > 100 | > 100 |  | > 100 | > 100 | > 100 | > 100 |  |  |  |  |  |  |  |  |  |  |  | 
18 | CCOC(=O)C1=C(C)N(c2ccc(C)cc2)C2(O)C=CC(=O)C3=C(O)c4ccccc4C(=O)C312 (stereo not drawn) | > 100 | > 100 | 62.1 | 61.1 | > 100 | 65.9 | 45.4 | > 100 |  | > 100 |  |  |  |  |  |  |  |  |  | 
19 | N#Cc1c(-c2ccc(Cl)cc2)cc(-c2nc3ccccc3[nH]2)nc1N | 16.2 | 46.1 |  | 42.6 |  | 25.5 | 26.3 | 28 | 19.4 | 48.4 |  |  |  |  |  |  |  |  |  | 
20 | c1cc2ccc1CNCCN1CCNCc3ccc(cc3)Oc3ccc(cc3)CNCCN(CCNCc3ccc(cc3)O2)CCNCc2ccc(cc2)Oc2ccc(cc2)CNCC1 | 3.38 |  | 3.72 | 2.63 | 1.99 |  | 0.0501 |  | 3.61 | 63.5 |  | 16.7 |  | 1.78 | 1110 | 0.682 |  | 0.0202 | 1700 | 1630
21 | CC1(C)CC(=O)C(=CN2C(=O)CNC2=S)C(=O)C1 | > 100 | > 100 | > 100 | > 100 | > 100 |  | > 100 | > 100 |  | > 100 |  |  |  |  |  |  |  |  |  | 
22 | O=S(=O)(/N=C1/SC(=Nc2ccccc2)N(c2ccccc2)/C1=N/S(=O)(=O)c1ccccc1)c1ccccc1 | 62.8 | 76.8 |  | 44.2 | 70.7 | 48.1 | 62.9 | 45.7 |  |  |  |  |  |  |  |  |  |  |  | 
